Results from patent publication US20250179033A1 (priority 2021, published 2025).
Like-named read-outs stand apart in the source and are kept apart here.

Tests used:
Format in all cases: cell-based
[1] = system: TZM-bl cells; assay: Toxicity assay in TZM-bl cells
Procedure: (§1) Compounds were serially diluted starting with 10 mM stocks in DMSO. DMSO concentrations were kept the same for all dilutions used within an assay (either 0.005% or 0.05% depending on highest concentration used). Duplicate 96-well plates were set up with 25 μL compound dilution, 25 μL virus, and 50 μL TZM-bl cells (2×10^5/mL) with DEAE-dextran and incubated at 37° C. 5% CO2 for 48 hr. All compounds were tested in triplicate, with single wells of efavirenz dilutions on each plate. All plates had 3-5 control wells without compound, 1 control well with no cells, and 1 control well with a highly toxic level of DMSO (9%). Inhibition assays were set up in clear tissue-culture treated plates with lysates moved to black assay plates or were set up in black tissue culture-treated plates. Medium was removed and the cells were lysed with Glo Lysis Buffer (Promega, Madison, Wisconsin, United States of America). Luciferase Assay System reagent (Promega, Madison, Wisconsin, United States of America) was added to cells and relative light units (RLU) was measured using an EnSpire instrument (PerkinElmer, Waltham, Massachusetts, United States of America). Toxicity assays were set up in clear tissue culture-treated plates. CellTiter-Blue Cell Viability Assay reagent (Promega) was added to the wells after 46 hr incubation, followed by 2 hr incubation. Sodium lauryl sulfate was added to 1.5% to stop the reaction and the plates were measured for fluorescence (560 nmEx/590 nmEm) using an EnSpire instrument (PerkinElmer, Waltham, Massachusetts, United States of America).

[2] = system: HIV-1 IIIB A17 variant (Y181C/K103N); assay: HIV inhibition assay in TZM-bl cells, A17 variant; details: Human immunodeficiency virus 1, IIIB, TZM-bl, read-out: IC50 (TZM, A17), Table 3, TZM-bl, ± SEM, minimum 6 replicates
Procedure: (§2) Cells and virus culture: TZM-bl cells (42), HIV-1 IIIB virus (43-45) and HIV-1 IIIB (A17 variant) virus (46) as well are the NNRTI resistant mutants (strain NL4-3) (47) were obtained from the NIH HIV Reagent Program. H9 [derivative of HuT 78]cells (ATCC® HTB176™) were obtained from the American Type Culture Collection (Manassas, Virginia, United States of America). These viruses were grown in H9 cells to high titer, which was tested using a HIV p24 (high sensitivity) The detection kit used was sold under the tradename ALPHALISA® Detection Kit (PerkinElmer, Waltham, Massachusetts, United States of America). The viruses were concentrated using Lenti-X Concentrator (Takara Bio USA, Inc., Mountain View, California, United States of America). Infections of TZM-bl cells with either virus was facilitated with 15 μg/mL DEAE-dextran.
as §1

[3] = system: HIV-1 IIIB (wild-type); assay: HIV inhibition assay in TZM-bl cells, wild-type; details: Human immunodeficiency virus 1, IIIB, read-out: IC50 (TZM, WT)
Procedure: as §2, §1

[4] = Table 3, TZM-bl, ± SEM, minimum 6 replicates

SMILES	Qualitative Cell Toxicity within inhibition range [1]	IC50 [2] [nM]	IC50 [3, 4] [nM]	Qualitative Cell Toxicity within inhibition range ([1]; Table 3, TZM-bl)	IC50 [3] [nM]
Cc1cc(S(=O)(=O)n2nc(Nc3ccc(Cl)nc3)nc2N)c(C)cc1Cl [Compound 27, 1-(4-chloro-2,5-dimethyl-phenyl)sulfonyl-N3-(6-chloro-3-pyridyl)-1,2,4-triazole-3,5-diamine]	None	> 1000	34.3 ± 9.91	–	–
CC(=O)Nc1nc(C)c(S(=O)(=O)n2nc(Nc3cc(Cl)c(Cl)cc3Cl)nc2N)s1 [Compound 44, N-[5-[[5-amino-3-(2,4,5-trichloroanilino)-1,2,4-triazol-1-yl]sulfonyl]-4-methyl-thiazol-2-yl]acetamide]	None	> 1000	165 ± 121	–	–
CC(C)(C)c1ccc(S(=O)(=O)n2nc(Nc3ccc(Cl)cc3)nc2N)cc1 [Compound 6, 1-(4-tert-butylphenyl)sulfonyl-N3-(4-chlorophenyl)-1,2,4-triazole-3,5-diamine]	None	295 ± 56.5	70.2 ± 10.5	–	–
COc1ccc(Cl)cc1S(=O)(=O)n1nc(Nc2ccc(Cl)cc2)nc1N [Compound 38, 1-(5-chloro-2-methoxy-phenyl)sulfonyl-N3-(4-chlorophenyl)-1,2,4-triazole-3,5-diamine]	None	> 1000	177 ± 73.1	–	–
Nc1nc(Nc2ccc(Cl)cc2)nn1S(=O)(=O)c1cccc2nonc12 [Compound 37, 1-(2,1,3-benzoxadiazol-4-ylsulfonyl)-N3-(4-chlorophenyl)-1,2,4-triazole-3,5-diamine]	None	> 1000	10.2 ± 1.46	–	–
Nc1nc(Nc2ccc(Cl)cc2)nn1S(=O)(=O)c1ccc2cc(Cl)ccc2c1 [Compound 25, 1-[(6-chloro-2-naphthyl)sulfonyl]-N3-(4-chlorophenyl)-1,2,4-triazole-3,5-diamine]	None	–	4.54 ± 0.33	–	–
Cc1nn(C)c(Cl)c1S(=O)(=O)n1nc(Nc2ccc(C#N)c(Cl)c2)nc1N [Compound 17, 4-[[5-amino-1-(5-chloro-1,3-dimethyl-pyrazol-4-yl)sulfonyl-1,2,4-triazol-3-yl]amino]-2-chloro-benzonitrile]	–	905 ± 392	–	None	0.305 ± 0.053
Nc1nc(Nc2ccc(Cl)cc2)nn1S(=O)(=O)c1cc(Cl)sc1Cl [Compound 41, N3-(4-chlorophenyl)-1-[(2,5-dichloro-3-thienyl)sulfonyl]-1,2,4-triazole-3,5-diamine]	None	3680 ± 10900	10.1 ± 1.69	–	–
N#Cc1ccc(Nc2nc(N)n(S(=O)(=O)c3c(Cl)nc4sccn34)n2)cc1C#N [Compound 51, 4-[[5-amino-1-(6-chloroimidazo[2,1-b]thiazol-5-yl)sulfonyl-1,2,4-triazol-3-yl]amino]-phthalonitrile]	None	> 1000	0.223 ± 0.055	–	–
Cc1nc(C)c(S(=O)(=O)n2nc(Nc3ccc(C#N)c(Cl)c3)nc2N)s1 [Compound 12, 4-[[5-amino-1-(2,4-dimethylthiazol-5-yl)sulfonyl-1,2,4-triazol-3-yl]amino]-2-chloro-benzonitrile]	–	306 ± 107	–	None	0.879 ± 0.072
CC(=O)N1CCc2cc(S(=O)(=O)n3nc(Nc4ccc(Cl)cc4)nc3N)ccc21 [Compound 34, 1-[5-[[5-amino-3-(4-chloroanilino)-1,2,4-triazol-1-yl]sulfonyl]indolin-1-yl]ethanone]	None	–	92.6 ± 15.5	–	–
Cc1cc(C#N)ccc1Nc1nc(N)n(S(=O)(=O)c2cccc3cc(C#N)ccc23)n1 [Compound 4, 5-[[5-amino-3-(4-cyano-2-methyl-anilino)-1,2,4-triazol-1-yl]sulfonyl]naphthalene-2-carbonitrile]	None	287 ± 69.5	13.8 ± 2.64	–	–
N#CCc1ccc(Nc2nc(N)n(S(=O)(=O)c3cccc4cc(C#N)ccc34)n2)cc1 [Compound 13, 5-[[5-amino-3-[4-(cyanomethyl)anilino]-1,2,4-triazol-1-yl]sulfonyl]naphthalene-2-carbonitrile]	None	42.9 ± 34.7	0.277 ± 0.0367	–	–
N#Cc1ccc(Nc2nc(N)n(S(=O)(=O)c3c(Cl)nc4sccn34)n2)cc1Cl [Compound 11, 4-[[5-amino-1-(6-chloroimidazo[2,1-b]thiazol-5-yl)sulfonyl-1,2,4-triazol-3-yl]amino]-2-chloro-benzonitrile]	–	175 ± 178	–	Low	0.98 ± 0.245
N#Cc1ccc(Nc2nc(N)n(S(=O)(=O)c3cccc(C#N)c3)n2)cc1 [Compound 9, 3-[[5-amino-3-(4-cyanoanilino)-1,2,4-triazol-1-yl]sulfonyl]benzonitrile]	None	709 ± 331	105 ± 24.3	–	–
Nc1nc(Nc2ccc(Cl)c(Cl)c2)nn1S(=O)(=O)c1cccc2ccccc12 [Compound 22, N3-(3,4-dichlorophenyl)-1-(1-naphthylsulfonyl)-1,2,4-triazole-3,5-diamine]	–	> 1000	–	None	4.68 ± 0.572
Cc1nc(C)c(S(=O)(=O)n2nc(Nc3ccc(Cl)cc3)nc2N)s1 [Compound 36, N3-(4-chlorophenyl)-1-(2,4-dimethylthiazol-5-yl)sulfonyl-1,2,4-triazole-3,5-diamine]	None	> 1000	44.1 ± 12.8	–	–
N#Cc1ccc(Nc2nc(N)n(S(=O)(=O)c3ccc4ccccc4c3)n2)cc1Cl [Compound 3, 4-[[5-amino-1-(2-naphthylsulfonyl)-1,2,4-triazol-3-yl]amino]-2-chloro-benzonitrile]	–	573 ± 130	–	None	1.57 ± 0.19
Nc1nc(Nc2ccc(Cl)cc2)nn1S(=O)(=O)CCN1C(=O)c2ccccc2C1=O [Compound 35, 2-[2-[[5-amino-3-(4-chloroanilino)-1,2,4-triazol-1-yl]sulfonyl]ethyl]isoindoline-1,3-dione]	None	–	14.3 ± 7.27	–	–
Nc1nc(Nc2ccc(Cl)cc2)nn1S(=O)(=O)c1cnc(Cl)c(Br)c1 [Compound 29, 1-[(5-bromo-6-chloro-3-pyridyl)sulfonyl]-N3-(4-chlorophenyl)-1,2,4-triazole-3,5-diamine]	None	–	14.3 ± 7.27	–	–
C=CC(=O)Nc1cc(C)c(S(=O)(=O)n2nc(Nc3ccc(Cl)cc3)nc2N)c(C)c1 [Compound 26, N-[4-[[5-amino-3-(4-chloroanilino)-1,2,4-triazol-1-yl]sulfonyl]-3,5-dimethyl-phenyl]prop-2-enamide]	None	–	5.78 ± 0.476	–	–
Cn1cnc(S(=O)(=O)n2nc(Nc3ccc(Cl)cc3)nc2N)c1 [Compound 28, N3-(4-chlorophenyl)-1-(1-methylimidazol-4-yl)sulfonyl-1,2,4-triazole-3,5-diamine]	None	–	83.7 ± 19.3	–	–
Cc1cc(C)c(Nc2nc(N)n(S(=O)(=O)c3ccc(Br)c(C)c3)n2)c(C)c1 [Compound 31, 1-(4-bromo-3-methyl-phenyl)sulfonyl-N3-(2,4,6-trimethylphenyl)-1,2,4-triazole-3,5-diamine]	None	–	19.4 ± 3.67	–	–
Nc1nc(Nc2ccc(Cl)cc2)nn1S(=O)(=O)c1ccc(-c2ccc(F)cc2)cc1 [Compound 30, N3-(4-chlorophenyl)-1-[4-(4-fluorophenyl)phenyl]sulfonyl-1,2,4-triazole-3,5-diamine]	None	–	21.5 ± 4.42	–	–
C=CC(=O)N(C)c1ccc(S(=O)(=O)n2nc(Nc3ccc(C#N)cc3)nc2N)cc1 [Compound 24, N-[4-[[5-amino-3-(4-cyanoanilino)-1,2,4-triazol-1-yl]sulfonyl]phenyl]-N-methyl-prop-2-enamide]	None	–	7.88 ± 0.643	–	–
